Experimental data taken from patent US10668174B2, “Organ protection in PSMA-targeted radionuclide therapy of prostate cancer” (Molecular Insight Pharmaceuticals, Inc., priority 2014, dated 2020).
Where two headings read alike, the source gives them in different places.

Assays:
[1] = PET-based dosimetry; cited from earlier work
[2] = Example 3: serial 68Ga-MIP-1558 PET of the salivary region with saline or PMPA; type: in vivo; settings: rats, PMPA 10 mg/kg
Procedure: (§1) MIP-1558 was evaluated after labeling with ^68Ga and imaging in an animal PET. […] Both tumor and kidney uptake was determined in a volume of interest (VOI).

LNCaP tumor = assay: Example 3: 68Ga-MIP-1558 animal PET, PMPA after 1 hour baseline scan; type: in vivo, BALB/c nude mice; settings: for kidney uptake SUVmax of 68Ga-MIP1558: PMPA 50 mg/kg; for mean tumor uptake SUVmax of 68Ga-MIP1558: after PMPA 50 mg/kg
Procedure: as §1

PSMA = settings: simultaneous coinjection of 50 mg/kg PMPA; cited from earlier work
LNCaP tumors = assay: Example 1: planar scintigraphy of 125I-MIP-1095, PMPA injected 16 hours later; type: in vivo, BALB/c nude mice
Procedure: Mice bearing LNCaP tumors of 1.5 cm diameter were injected via the tail vein with 37 MBq of ^125I-MIP-1095 in 100 μl at a specific activity of >1,000 mCi/[…]. Mice were imaged at a baseline time of 16 hours post injection giving enough time for tracer clearance from the blood stream and kidney calices.

[3] = doses of up to 750 mg (~10 mg/kg), 25 healthy subjects, mean body weight 71 kg; cited from earlier work
[4] = groups 3, 4 and 5, 0.05, 0.15 and 0.5 mg/kg
[5] = group 2, PMPA 0.5 mg/kg IV 16 hours post tracer

Procedure for LNCaP xenografts: Blood and tissues were collected 18 hours after intravenous injection of ^125I-MIP-1095 (2 hours after displacing agent injections). Gamma-counter readouts were obtained for each sample and expressed as percent injected dose per gram of tissue using gamma-counter readout of the dosing solution as a reference.
The dosing solution was prepared fresh the day of administration.
Cold MIP-1095 was stored protected from light at −80° C. until use. The compound was formulated in a vehicle of sterile saline. For dosing of the 0.50 mg/kg group, the cold MIP-1095 was placed into a sterile vial and the appropriate amount of saline was added and mixed well by vortexing to form a clear solution with a pH value of 6.96. Dosing solutions for the 0.15 mg/kg and 0.05 mg/kg groups were prepared by direct (not serial) dilution of the dosing solution from the 0.5 mg/kg group with complete vehicle. The dosing solutions were prepared fresh the day of administration.
For dosing, the stock solution (colorless) was thawed in a 37° C. water bath and diluted 1:1 with sterile saline for a fixed 0.1 mCi/ml solution for dosing.
The pre-implantation cell viability was 97%. […] The cell suspension was maintained on wet ice during implantation. Following implantation, an aliquot of the remaining cells was diluted with a trypan blue solution and counted to determine the post-implantation cell viability (96%).
Test animals were implanted subcutaneously, high in the axilla (just under the fore limb) on Day 0 with 5.0E+06 cells in 0.2 ml of 50% serum-free medium:50% Matrigel® using a 27-gauge needle and syringe.
All mice were sorted into study groups based on caliper measurement estimation of tumor burden. The mice were distributed to ensure that the mean tumor burden for all groups was within 10% of the overall mean tumor burden for the study population. Treatment began on Day 25. Mice were administered test agent via intravenous injections. The mice were administered a fixed volume injection of 100 μl (approximately 4 ml/kg) via the tail vein, using a 28-gauge needle and insulin syringe. A fresh needle and syringe was used for each mouse.
Group 1—^125I-MIP-1095+Saline, 0.4 mCi/kg (0.005 mg/kg)+100 μl fixed volume, IV+IV, “Control”; test article at 0 hours, saline 16 hours post test article.

For `O=C(O)CC[C@H](NC(=O)N[C@@H](CCCCNC(=O)Nc1ccc(I)cc1)C(=O)O)C(=O)O` [cold MIP-1095], the “exposure in other organs” value (LNCaP xenografts; group 4 (0.15 mg/kg)) was “little changed”, the “reduction of LNCaP tumors exposure compared to negative control” value (LNCaP xenografts; group 4 (0.15 mg/kg)) was 1.2 fold and the “reduction of kidney exposure compared to negative control” value (LNCaP xenografts; group 4 (0.15 mg/kg)) was 5 fold. The 125I-MIP-1095 kidney exposure (LNCaP xenografts; [4]) was “dose-dependently reduced”, the LNCaP tumors exposure (LNCaP xenografts; [4]) was “dose-dependent decrease” and the “liver, stomach, large and small intestines exposure” value (LNCaP xenografts; [4]) was “dose-dependent increase”. The “reduction in kidney exposure compared with positive control” value (LNCaP xenografts; highest dose (0.5 mg/kg)) was “equivalent to the one observed for positive control”.
In the case of `O=C(O)CC[C@H](NC(=O)N[C@@H](CCCCNC(=O)Nc1ccc([123I])cc1)C(=O)O)C(=O)O` [124I-MIP1095], the “off-target radiation dose, kidneys” value [1] is listed as 1.4 mSv/MBq, the “off-target radiation dose, liver” value [1] is listed as 1.7 mSv/MBq and the “off-target radiation dose, salivary glands” value [1] is listed as 3.8 mSv/MBq. For the same compound, the “radiation dose, red marrow” value [1] was 0.37 mSv/MBq.
For `O=C(O)CCC(CP(=O)(O)O)C(=O)O` (stereo not drawn) [PMPA, 2-(phosphonomethyl)pentanedioic acid], the “difference in MIP-1404 tumor uptake vs controls” value (LNCaP; PMPA 50 mg/kg) was “not significant”, the “washout of MIP-1404 from kidney vs controls” value (LNCaP; PMPA 50 mg/kg after baseline scan, at 2 and 4 hours) was “significantly (p<0.01) enhanced” and the “change of salivary region uptake due to the PMPA intervention” value [2] was “there does not appear to be a measurable change”. For the same compound, the “salivary region SUVmax of 68Ga-MIP-1558, mean” value ([2]; 1 hour post injection) was 0.82, the “salivary region SUVmax of 68Ga-MIP-1558, mean” value ([2]; 3 hours post injection) was 0.23 and the “exposure of 125I-MIP-1095 in LNCaP tumors and all other organs and tissues” value (LNCaP xenografts; [5]) was “little changed”. The “exposure of 125I-MIP-1095 in the kidneys” value (LNCaP xenografts; [5]) was “greatly reduced”, the “residual kidney uptake of MIP-1404, % of baseline” value (PMPA 1 mg/kg, 2 hours) was 13% and the “residual kidney uptake of MIP-1404, % of baseline” value (PMPA 1 mg/kg, 4 hours) was 9%. The “residual kidney uptake of MIP-1404, % of baseline” value (PMPA 10 mg/kg, 2 hours) was 15%, the “residual kidney uptake of MIP-1404, % of baseline” value (PMPA 10 mg/kg, 4 hours) was 10% and the “residual kidney uptake of MIP-1404, % of baseline” value (PMPA 50 mg/kg, 2 hours) was 11%. The “residual kidney uptake of MIP-1404, % of baseline” value (PMPA 50 mg/kg, 4 hours) was 7%, the “kidney uptake SUVmax of 68Ga-MIP1558” value (LNCaP tumor; 2 hours post injection) was 1.87 and the “kidney uptake SUVmax of 68Ga-MIP1558” value (LNCaP tumor; 3 hours post injection) was 1.77. For the same compound, the “mean tumor uptake SUVmax of 68Ga-MIP1558” value (LNCaP tumor; 2 hours post injection) was 0.40, the “mean tumor uptake SUVmax of 68Ga-MIP1558” value (LNCaP tumor; 3 hours post injection) was 0.39 and the “blocking of radiolabeled MIP-1095 binding sites in tumor and kidneys” value (PSMA) was “complete blocking”. The “residual tumor uptake of 125I-MIP-1095, % of 16 hour baseline” value (LNCaP tumors; 2 hours after PMPA 0.2 mg/kg) was 98%, the “residual tumor uptake of 125I-MIP-1095, % of 16 hour baseline” value (LNCaP tumors; 2 hours after PMPA 1 mg/kg) was 93% and the “residual tumor uptake of 125I-MIP-1095, % of 16 hour baseline” value (LNCaP tumors; 2 hours after PMPA 10 mg/kg) was 77%. The “residual tumor uptake of 125I-MIP-1095, % of 16 hour baseline” value (LNCaP tumors; 2 hours after PMPA 50 mg/kg) was 75%, the “decrease in tumor uptake” value (LNCaP tumors; PMPA 0.2 mg/kg) was under 5% and the “renal displacement of tracer” value (LNCaP tumors; PMPA 0.2 mg/kg (lower dose)) was “only sub-totally displaced”. The “displacement of 125I-MIP-1095 from the kidneys” value (LNCaP tumors; PMPA 0.2 mg/kg, 16 hours after tracer) was “high significant (p<0.01) displacement”, the “effect on tumor uptake” value (LNCaP tumors; PMPA 1.0 mg/kg) was under 10% and the “renal displacement of tracer” value (LNCaP tumors; PMPA 1.0 mg/kg) was “near total renal displacement”. For the same compound, the “kidney washout of 125I-MIP-1095 vs 0.2 mg/kg dose” value (LNCaP tumors; PMPA 1 mg/kg, p<0.01) was “even higher kidney washout”, the “displacement of renal activity of 125I-MIP-1095” value (LNCaP tumors; PMPA 16 hours after MIP-1095, all PMPA doses (0.2-50 mg/kg)) was “rapid and quantitative relevant displacement” and the “kidney-protective effect vs 1 mg/kg” value (LNCaP tumors; PMPA doses greater than 1 mg/kg (10, 50 mg/kg)) was “did not improve the kidney-protective effect”.
In the case of `O=C(O)CC[C@H](NC(=O)N[C@@H](CCCCNC(=O)Nc1ccc([123I])cc1)C(=O)O)C(=O)O` [125I-MIP-1095], the “exposure in all other tissues and organs (including salivary glands)” value (LNCaP xenografts; male, Taconic Nude (CrTac:NCr-Foxn1nu), mouse, in vivo, 18 h) is reported as “less than 1 % of ID/g” and the “exposure in LNCaP tumors relative to other tissues” value (LNCaP xenografts; mouse, in vivo, iv) is reported as “highest exposure”.
For `O=C(O)CC[C@H](NC(=O)N[C@@H](CCC(=O)N[C@@H](CCCCN(Cc1nccn1CC(=O)N(CC(=O)O)CC(=O)O)Cc1nccn1CC(=O)N(CC(=O)O)CC(=O)O)C(=O)O)C(=O)O)C(=O)O` [MIP-1404], the “washout from the kidneys without intervention” value (LNCaP; mouse, in vivo) was “fast washout”.
For `O=C(O)CCC(CCCS)C(=O)O` (stereo not drawn) [2-MPPA, 2-(3-mercaptopropyl)pentanedioic acid], the safety and tolerability [3] is given as “safe and generally well tolerated”.
